Measured values from patent publication US5382525A, “Method of effecting increased performance of diagnostic enzyme reaction systems using noble gases” (American Air Liquide, priority 1992, dated 1995).

Tests used:
[1] = independent of oxygen partial pressure; Schreiner; cited from earlier work
particulate sialidase = conditions: Sandhoff et al 1976; called questionable, highly impure enzymes; cited from earlier work
[2] = tested on: Alkaline Phosphatase (EC 3.1.3.1); experiment: Alkaline Phosphatase [ALP/AP] Sigma Kit No. 245-10 gas run; type: biochemical, Chicken; parameters: Rate Difference / Yield Difference: unit not given here; conditions: for Yield Difference / Rate Difference: relative to air; for rate of the alkaline phosphatase-catalyzed reaction (FIGS. 1-3): 10°, 25° and 35° C., saturation with the gas
Source text: Alkaline Phosphatase [ALP/AP] Sigma Kit. No. 245-10 Gas Run Protocol
Phosphatase, Alkaline P-8008
(Orthophosphoric-monoester phosphohydrolase [alkaline optimum]; EC 3.1.3.1)
From Chicken Intestine 5.1 Units/mg solid (1 g solid) Lot# 115F-3806
SIGMA Diagnostic Kit 245-10 (Procedure No. 245)
PRINCIPLE [drawing 1] The hydrolysis occurs at alkaline pH. The formation of p-nitrophenol can be observed as an increase in absorbance at 405 nm. The rate of increase directly proportional at ALP activity. […]
(§1) The following consists of example results obtained from gas runs. Negative numbers indicate an inhibition of the enzyme activity. Positive numbers indicate an enhancement of the enzyme activity

Urease EC 3.5.1.5 = biological target: T1, Urease EC 3.5.1.5 (Canavalia ensiformis, UniProt P07374); experiment: Urea Nitrogen Diagnostic Kit (640) stop-flow gas run; type: biochemical, jack beans; conditions: 37° C.; relative to air
T1 construct: purchased Sigma 640-5; host or cells: jack beans
Source text: Urea Nitrogen Diagnostic Kit (640) Protocol For Gas Run
Urea Nitrogen (Sigma Diagnostic Kit, Procedure No. 640)
Sigma No. 640-5 Buffered Urease from jack beans 100 units when prepared according to directions (3.33 units/ml). Sodium azide added as preservative. Store in refrigerator. Note expiration date: JUNE 1993
PRINCIPLE: Urea is hydrolyzed by urease to ammonia and carbon dioxide. [drawing 6] Ammonia then reacts with alkaline hypochlorite and phenol in the presence of a catalyst, sodium nitroprusside [Na2 Fe[CN]5 NO.2H2 O], to form indophenol. The concentration of ammonia is directly proportional to the absorbance of indophenol, which is measured spectrophotometrically at 570 nm. [drawing 7] Note: Ammonia free water (DI H2 O should be ok) is necessary for this procedure, Make sure to rinse everything with DI H2 O before use, If the blank has more than a trace of blue color ammonia contamination should be suspected.
PROCEDURE FOR STOP-FLOW GAS EXPERIMENT
In a 100 cc serum vial place 20 ml Urease soln (Soln A1). Stopper, seal and crimp. Bubble 400 ml of gas through (using the 500 ml gas-tight syringe). Superimpose 100 ml of gas, vial will be under positive pressure.
Sample 0.4 ml Urea Nitrogen Standard Solution 1 from gassed 3 cc vial. Add to the gassed 100 cc serum vial (containing 20 ml Soln A1). Start stop watch, gently swirl vial.
Take 0.5 ml samples every minute. Place the 0.5 ml sample into the corresponding 10 cc vial to stop the reaction. Inject immediately 1 ml Alkaline Hypochlorite Solution followed by 5 ml D.I. H2 O.
Let the 15×10 cc vials sit and develop color for 30 minutes. a 1 wavelength "scan" (see software) should be run: 3 ml per cuvette. Read vs a blank of 3 ml Soln B.
Spectrophotometric study procedure: 37° C.
as §1

[3] = tested on: Acid Phosphatase (EC 3.1.3.2); experiment: Acid Phosphatase Sigma Kit No. 435-A gas run; type: biochemical, Potato; conditions: for rate of the acid phosphatase-catalyzed reaction (FIG. 4): 10° C., saturation with the gas; for % Rate Difference / % Yield Difference: relative to air
Source text: Acid Phosphatase Sigma Kit. No. 435-A Gas Run Protocol
(Orthophosphoric-monoester phosphohydrolase [acid optimum)]; EC 3.1.3.2)
From Potato 0.8 Units/mg solid (1 g solid) Lot# 17F-7285
SIGMA Diagnostic Kit 435-A (Procedure No. 435)
PRINCIPLE [drawing 3] Acid phosphatase [ACP] catalyzes the hydrolysis of α-Naphthyl phosphate to a-Naphthol and inorganic phosphate. α-Naphthol immediately reacts with fast red TR salt to produce a yellow chromophore with an absorbance maximum at 405 nm. The rate of increase in absorbance at 405 nm is directly proportional to ACP activity. […]
as §1

[4] = biological target: T2, Alcohol dehydrogenase EC 1.1.1.1 (Saccharomyces cerevisiae, UniProt P00330); experiment: Alcohol [Ethanol] Diagnostic Kit Sigma No. 332-UV gas run; type: biochemical, yeast; conditions: relative to air
T2 construct: purchased Sigma 330-1; host or cells: yeast
T2 sequence (P00330 1-348): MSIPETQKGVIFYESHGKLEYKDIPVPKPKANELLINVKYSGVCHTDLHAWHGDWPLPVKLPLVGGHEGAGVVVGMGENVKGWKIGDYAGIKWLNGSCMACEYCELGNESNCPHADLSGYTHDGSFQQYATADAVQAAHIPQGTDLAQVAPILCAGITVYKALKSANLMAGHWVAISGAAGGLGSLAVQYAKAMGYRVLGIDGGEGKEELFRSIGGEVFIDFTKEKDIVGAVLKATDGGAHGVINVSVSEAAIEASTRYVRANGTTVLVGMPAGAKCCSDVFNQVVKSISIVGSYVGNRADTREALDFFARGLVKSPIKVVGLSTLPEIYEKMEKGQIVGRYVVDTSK
Method: Alcohol [Ethanol] Diagnostic Kit Sigma Diagnostic Kit No. 332-UV Gas Run Protocol
SIGMA Diagnostic Kit 332-BT (Procedure No. 332-UV)
The NAD-ADH vials, when reconstituted according to the directions, contain approximately the following concentrations of active ingredients: NAD, 0.6 μmol/ml, alcohol dehydrogenase [yeast], 50 U/ml, and stabilizers. […]
Step 1: Prepare diluted Ethanol Standard Solution by mixing 4.0 ml Glycine Buffer Reagent (332-9) with 0.5 ml Ethanol Standard Solution (330-20). Cap until ready for use. 4 substrate concentrations: […]
Inject 1×3 cc of gas in silicone-sealed cuvettes No 2nd and 3rd 3 cc gas injection: NAD-ADH solution squirts back in the syringes because of foam formation due to bubbling. Store cuvettes overnight in refrigerator (0°-5° C.) under two 3 cc syringes, in the dark. […]
Remove the G1 cuvettes out from the fridge. Bubble 2×3 cc of gas. Place cuvettes (under two 3 cc syringes filled up with the appropriate gas) in cell holder.
Sample diluted Ethanol Standard Solution with 1 cc syringes, pick syringes into silicone, push plungers simultaneously, run timedrives.
as §1

[5] = 10 °C, positive = enhancement, negative = inhibition of enzyme activity

T1 sequence (P07374 whole entry, looked up): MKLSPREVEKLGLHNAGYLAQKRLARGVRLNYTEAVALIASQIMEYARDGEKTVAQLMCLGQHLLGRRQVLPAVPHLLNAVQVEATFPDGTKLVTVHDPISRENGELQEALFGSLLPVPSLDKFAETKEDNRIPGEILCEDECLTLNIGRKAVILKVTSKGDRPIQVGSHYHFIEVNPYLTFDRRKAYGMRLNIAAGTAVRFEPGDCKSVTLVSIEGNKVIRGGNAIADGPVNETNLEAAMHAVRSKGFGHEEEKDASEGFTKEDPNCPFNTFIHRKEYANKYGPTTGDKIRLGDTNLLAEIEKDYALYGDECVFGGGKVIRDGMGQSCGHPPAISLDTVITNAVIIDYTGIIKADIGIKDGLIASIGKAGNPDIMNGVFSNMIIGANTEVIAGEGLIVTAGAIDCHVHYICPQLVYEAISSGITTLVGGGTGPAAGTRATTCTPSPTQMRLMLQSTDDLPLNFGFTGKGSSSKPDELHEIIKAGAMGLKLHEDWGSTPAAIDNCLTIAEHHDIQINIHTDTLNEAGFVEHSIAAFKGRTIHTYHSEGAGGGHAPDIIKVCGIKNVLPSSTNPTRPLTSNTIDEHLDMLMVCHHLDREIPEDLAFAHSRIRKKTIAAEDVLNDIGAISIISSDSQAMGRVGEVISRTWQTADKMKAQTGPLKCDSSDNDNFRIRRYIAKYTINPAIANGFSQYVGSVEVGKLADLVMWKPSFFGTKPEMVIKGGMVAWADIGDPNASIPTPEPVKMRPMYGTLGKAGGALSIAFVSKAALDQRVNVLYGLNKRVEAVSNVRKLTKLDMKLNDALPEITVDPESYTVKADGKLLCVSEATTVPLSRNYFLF

| Structure (SMILES) | effect on activity of particulate sialidase (particulate sialidase) | Yield Difference ([2]; 10 °C) | Rate Difference [2, 5] | Rate Difference ([2]; 25 °C) | Yield Difference ([2]; 25 °C) | Rate Difference ([2]; 35 °C) | Yield Difference ([2]; 35 °C) | % Rate Difference (Urease EC 3.5.1.5) | rate of the alkaline phosphatase-catalyzed reaction (FIGS. 1-3) [2] | rate of the acid phosphatase-catalyzed reaction (FIG. 4) [3] | % Rate Difference ([3]; 10 °C) | % Yield Difference ([3]; 10 °C) | % Rate Difference ([3]; 25 °C) | % Yield Difference ([3]; 25 °C) | % Rate Difference ([3]; 35 °C) | % Yield Difference ([3]; 35 °C) | % Yield Difference (Urease EC 3.5.1.5) | % Rate Difference ([4]; 0.24% Ethanol, 10° C.) | % Rate Difference ([4]; 0.32% Ethanol, 10° C.) | % Yield Difference ([4]; 0.32% Ethanol, 10° C.) | also measured |
| --- | --- | --- | --- | --- | --- | --- | --- | --- | --- | --- | --- | --- | --- | --- | --- | --- | --- | --- | --- | --- | --- |
| [N-]=[N+]=O [nitrous oxide] | enhance the activity | – | – | – | – | – | – | – | – | – | – | – | – | – | – | – | – | – | – | – | inhibition per atmosphere of added gas [1]: 1.9 % inhibition per atmosphere |
| FC(F)(F)C(Cl)Br (centres unmarked) [halothane] | enhance the activity | – | – | – | – | – | – | – | – | – | – | – | – | – | – | – | – | – | – | – | – |
| N#N [N2, Nitrogen, reference compound] | – | 0 | 0 | 0 | 0 | 0 | 0 | 0.0% | – | – | – | – | – | – | – | – | – | – | – | – | – |
| [Xe] [Xe, xenon] | enhance the activity | 16.7 | 16.7 | 18.2 | 18.2 | 7.3 | 7.3 | 9.4% | improvement of the rate | improvement of the rate | 42.2% | 39.2% | 21.1% | 14.7% | 5.6% | 4.2% | 9.4% | 7.5% | 15.6% | 10.2% | % Yield Difference ([4]; 0.24% Ethanol, 10° C.): 10.0%; % Rate Difference ([4]; 0.24% Ethanol, 25° C.): -10.4%; % Yield Difference ([4]; 0.24% Ethanol, 25° C.): -8.0% |
| [Kr] [Kr, krypton] | – | 1.7 | 1.7 | 9.1 | 9.1 | 4.3 | 4.3 | 0.0% | improvement of the rate | improvement of the rate | 18.1% | 16.0% | 13.3% | 7.3% | 1.4% | 1.3% | 0.0% | 11.9% | 8.6% | 4.7% | % Rate Difference ([4]; 0.08% Ethanol, 10° C.): 2.9%; % Yield Difference ([4]; 0.24% Ethanol, 10° C.): 14.2%; % Rate Difference ([4]; 0.24% Ethanol, 25° C.): -9.4%; % Yield Difference ([4]; 0.24% Ethanol, 25° C.): -4.4% |
| [Ar] [Ar, argon] | – | 33.3 | 33.3 | 3.0 | 3.0 | 30.4 | 30.4 | 9.4% | improvement of the rate | improvement of the rate | 8.4% | 9.4% | 12.2% | 9.2% | -1.4% | -0.42% | 9.4% | 9.0% | 5.2% | 2.3% | % Rate Difference ([4]; 0.08% Ethanol, 10° C.): 8.8%; % Yield Difference ([4]; 0.24% Ethanol, 10° C.): 8.3%; % Rate Difference ([4]; 0.24% Ethanol, 25° C.): -9.4%; % Yield Difference ([4]; 0.24% Ethanol, 25° C.): -6.6% |
| [Ne] [Ne, neon] | – | – | – | – | – | – | – | 3.1% | – | – | – | – | – | – | – | – | 3.1% | – | 12.1% | 3.9% | – |
